Laboratory results taken from US20240239790A1, “7-Morpholino-1,6-Naphthyridin-5-yl Derivatives and Pharmaceutical Compositions Thereof Useful as DNA-PK Inhibitor” (adMare Therapeutics Society, priority 2021, published 2024).
pEC50, pIC50: −log10 of the molar value. Where two headings read alike, the source gives them in different places.

Key:
[1] = target: T1, DNA-PK phosphorylation at Serine 2056 (Homo sapiens, UniProt P78527); assay: Cellular Assay for Inhibition of DNA-PK Phosphorylation at Serine 2056 in FaDu cells (sandwich ELISA, neocarzinostatin); type: cell-based; conditions: pSer2056 DNA-PK
T1 construct: FaDu cells were purchased from ATCC; host or cells: FaDu
In short: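 FaDu cells pre-treated with compound (0.3% DMSO) for 1 h, then neocarzinostatin 1 μg/mL final added for 2 h to induce DSBs. Protein-normalised lysates read by sandwich ELISA for total and pSer2056 DNA-PK; % inhibition normalised between DMSO and NCS controls, IC50 from variable-slope log(inhibitor) fit.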

DNA-PK = target: T2, DNA-PK (Homo sapiens, UniProt P78527); assay: DNA-PK Assay for Biochemical Enzymatic Inhibition (ADP Glo Kinase assay); conditions: DNA-PK enzyme
T2 construct: purchased Invitrogen PR9107A
In short: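 Human DNA-PK (25 ng) preincubated 15 min with compounds (ten three-fold dilutions) in HEPES pH 7.5, MgCl2, KCl, calf thymus DNA buffer, then substrate 434.4 μM and ATP 64.4 μM (final) for 60 min at room temperature. ADP-Glo luminescence; percent inhibition fitted by four-parameter regression for IC50.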

[2] = tested on: pDNA-PK induction in HCT116 tumour spheroids; assay: Multicellular tumour spheroid + radiation, pDNA-PK (ser2056) inhibition, immunohistochemical endpoint, HCT116; type: cell-based; conditions: Homo sapiens, 20 Gy, 20% O2
Procedure: Multicellular tumour spheroids determination of compound inhibition of pDNA-PK induction following radiation. Tumour spheroids were grown to approximately 0.5 mm in diameter and irradiated with 20 Gy in combination with inhibitor test compounds to determine their potency. Inhibitor concentration for 50% reduction in pDNA-PK induction (IC50) was determined via immunohistochemical staining in spheroid cryosections taken 2 hours following radiation.
(§1) Spheroid+radiation pDNA-PK. Radiation: 20 Gy. Drug: serial dilution 5 or 10 μM down to 3.5 nM (11 wells). Spheroids: 3-6 spheroids per well (300-500 μm diameter). 20% 02 and 5% CO2. 96 well plate format.
Protocol: pre-incubate 1 hours with drug, irradiate with 20 Gy, post-incubate 2 hours with drug, freeze and cryosection ×3 replicates.
Endpoint: fluorescent immunostin pDNA-PK ser2056 and image on microscope.
Analysis: determine EC50 concentration that decreases pDNA-PK induction by 50% after radiation.
Multicellular tumour spheroids determination of compound inhibition of pDNA-PK induction following radiation. Tumour spheroids were grown to approximately 0.5 mm in diameter and irradiated with 20 Gy in combination with inhibitor test compounds to determine their potency. Inhibitor concentration for 50% reduction in pDNA-PK induction (IC50) was determined via immunohistochemical staining in spheroid cryosections taken 2 hours following radiation. For cell survival endpoint 8 Gy radiation was used and 3 hours following radiation spheroids were dissociated, counted and plated for colony forming endpoint.
as §1, with “format. Endpoint: fluorescent immunostain pDNA-PK ser2056 and image on microscope. Analysis: determine EC50 concentrations that decreases pDNA-PK induction by 50% after irradiation.” for “format.”
Multicellular tumour spheroids were used to determine potency of test compounds in a 3D tissue environment using inhibition of pDNA-PK induction following radiation or cell survival as the endpoint. For the pDNA-PK endpoint HCT116 or FaDU tumour spheroids were grown to approximately 0.5 mm in diameter and irradiated with 20 Gy in combination with inhibitor test compounds to determine their potency. Experiments were carried out in 96 well plates containing 0.7 mls of MEM media containing 10% FBS and 10 mM glucose under 20% O2 & 5% CO2 at 37° C. Following dilution of compounds 1:1000 from DMSO stocks, compounds were serially diluted from 10 μM down to 3.5 nM and 5-10 spheroids added. 96 well plates were constantly stirred to avoid spheroids settling during the course of the experiment. The inhibitor concentration for 50% reduction in pDNA-PK induction (EC50) was determined via immunohistochemical staining in spheroid cryosections taken 2 hours following radiation using anti-pDNA-PK (ser 2056) and fixed immediately in formalin following sectioning. For cell survival endpoint 8 Gy radiation was used and, 3 hours following radiation, spheroids were dissociated, counted and plated for colony forming endpoint. Data presented in the table compound potency as EC50 [μM].

[3] = Microsomal Stability Assay, mouse liver microsomes; type: in vitro ADME; conditions: for microsomal CLint at 0.1 uM: male, CD-1, pH 7.4, mouse liver microsomes 0.1 mg/mL, 0.1 uM compound; for Microsomal Stability Mouse % rem. 60 min: mouse liver microsomes
Procedure: Samples were then mixed and centrifuged. Supernatants were used for HPLC-MS/MS analysis. […] Peak areas corresponding to the test compound were recorded.

FaDu cell line = assay: Prodrug Activation in Hypoxic Stirred Tumour Cell Suspensions; conditions: 10 μM, 4 hours
[4] = tested on: pH2AX induction in HCT116 ATM-/- multicellular tumour spheroids; assay: Prodrug Radiation Sensitization in Multicellular Tumour Spheroids, inhibition of pH2AX induction following radiation; type: cell-based; conditions: Homo sapiens, HCT-116, 20 Gy
In short: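 HCT116 and FaDu spheroids (~0.5 mm diameter), ATM-deficient lines included, in MEM/10% FBS/10 mM glucose at 37 °C under 20% vs 5% oxygen with stirring. Prodrugs 10 μM down to 3.5 nM, 20 Gy irradiation. pDNA-PK (ser 2056) or pH2AX (ser 139) scored in formalin-fixed cryosections 1 or 2 h post-radiation.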

[5] = neocarzinostatin 1 μg/mL, Table 1
[6] = HCT-116, 2 h, spheroids, Example 8, read-out: Cell line: HCT116 Immunohistochemical endpoint pDNA-PK inhibition EC50
[7] = HCT-116, 2 hours following radiation, Example 9 Study 2, read-out: Spheroid Cell line: HCT116 Immunohistochemical endpoint pDNA-PK inhibition EC50
[8] = HCT-116, Spheroid, Cell Line: HCT115 (so in the source), 2 hours following radiation, Example 7, read-out: EC50, Immunohistochemical endpoint, pDNA-PK inhibition
[9] = 5% O2, inner layers, read-out: Prodrug 5% O2 Inner layers EC50
[10] = 5% O2, outer layers, read-out: Prodrug 5% O2 Outer layers EC50
[11] = 20% O2, outer layers, read-out: Prodrug 20% O2 Outer layers EC50

## Cn1cc([C@H]2CC[C@@H](Oc3nc(N4CCOCC4)cc4ncc(OCCO)cc34)CC2)cn1 [Compound 5, 2-((5-(((1s,4s)-4-(1-methyl-1H-pyrazol-4-yl)cyclohexyl)oxy)-7-morpholino-1,6-naphthyridin-3-yl)oxy)ethan-1-ol]
[1]; [5]
  pIC50: 4.52 to 5.00
DNA-PK; Table 1
  pIC50: 8.00 to 9.00
[2]; [6]
  pEC50: 5.00 to 6.00
[2]; [7]
  pEC50: 5.00 to 6.00
[2]; [8]
  pEC50: 5.00 to 6.00
[3]
  microsomal CLint at 0.1 uM: > 116 µL/min/mg
  Microsomal Stability Mouse % rem. 60 min: E (% remaining = 0-25%)

## CC1(C)CN(c2cc3ncccc3c(O[C@H]3CC[C@@H](n4ccnc4)CC3)n2)CC(C)(C)O1 [Compound 12, 4-(5-(((1s,4s)-4-(1H-imidazol-1-yl)cyclohexyl)oxy)-1,6-naphthyridin-7-yl)-2,2,6,6-tetramethylmorpholine]
DNA-PK; Table 1
  pIC50: 6.82 to 8.00
[3]
  microsomal CLint at 0.1 uM: > 116 µL/min/mg
  Microsomal Stability Mouse % rem. 60 min: E (% remaining = 0-25%)

## NC(=O)N[C@H]1CC[C@@H](Oc2nc(N3CCOCC3)cc3ncccc23)CC1 [Compound 15, 1-((1s,4s)-4-((7-morpholino-1,6-naphthyridin-5-yl)oxy)cyclohexyl)urea]
[1]; [5]
  pIC50: 6.00 to 7.00
DNA-PK; Table 1
  pIC50: 8.00 to 9.00
[2]; [6]
  pEC50: 5.00 to 6.00
[2]; [7]
  pEC50: 5.00 to 6.00
[2]; [8]
  pEC50: 5.00 to 6.00
[3]
  microsomal CLint at 0.1 uM: > 116 µL/min/mg
  Microsomal Stability Mouse % rem. 60 min: E (% remaining = 0-25%)

## c1ccc(-c2cnc3cc(N4CCOCC4)nc(O[C@H]4CC[C@@H](n5ccnc5)CC4)c3c2)cc1 [Compound 156, 4-(5-(((1s,4s)-4-(1H-imidazol-1-yl)cyclohexyl)oxy)-3-phenyl-1,6-naphthyridin-7-yl)morpholine]
DNA-PK; Table 1
  pIC50: 6.82 to 8.00
[3]
  microsomal CLint at 0.1 uM: > 116 µL/min/mg
  Microsomal Stability Mouse % rem. 60 min: E (% remaining = 0-25%)

## Cc1noc(C)c1-c1cnc2cc(N3CCOCC3)nc(O[C@H]3CC[C@@H](n4ccnc4)CC3)c2c1 [Compound 157, 4-(5-(((1s,4s)-4-(1H-imidazol-1-yl)cyclohexyl)oxy)-3-(3,5-dimethylisoxazol-4-yl)-1,6-naphthyridin-7-yl)morpholine]
[1]; [5]
  pIC50: 5.00 to 6.00
DNA-PK; Table 1
  pIC50: 8.00 to 9.00
[3]
  microsomal CLint at 0.1 uM: > 116 µL/min/mg
  Microsomal Stability Mouse % rem. 60 min: E (% remaining = 0-25%)

## Cn1cc(-c2cnc3cc(N4CCOCC4)nc(O[C@H]4CC[C@@H](n5ccnc5)CC4)c3c2)cn1 [Compound 158, 4-(5-(((1s,4s)-4-(1H-imidazol-1-yl)cyclohexyl)oxy)-3-(1-methyl-1H-pyrazol-4-yl)-1,6-naphthyridin-7-yl)morpholine]
[1]; [5]
  pIC50: 6.00 to 7.00
DNA-PK; Table 1
  pIC50: 6.82 to 8.00
[3]
  microsomal CLint at 0.1 uM: > 116 µL/min/mg
  Microsomal Stability Mouse % rem. 60 min: E (% remaining = 0-25%)

## O=S(=O)(Nc1cnc2cc(N3CCOCC3)nc(O[C@H]3CC[C@@H](Nc4ncccn4)CC3)c2c1)C1CCC1 [Compound 191, N-(7-morpholino-5-(((1s,4s)-4-(pyrimidin-2-ylamino)cyclohexyl)oxy)-1,6-naphthyridin-3-yl)cyclobutanesulfonamide]
[1]; [5]
  pIC50: 6.00 to 7.00
DNA-PK; Table 1
  pIC50: 8.00 to 9.00
[2]; [7]
  pEC50: 4.00 to 5.00
[2]; [8]
  pEC50: 4.00 to 5.00

## CN(C)S(=O)(=O)Nc1cnc2cc(N3CCOCC3)nc(O[C@H]3CC[C@@H](Nc4ncccn4)CC3)c2c1 [Compound 194, N-[(1s,4s)-4-({3-[(dimethylsulfamoyl)amino]-7-(morpholin-4-yl)-1,6-naphthyridin-5-yl}oxy)cyclohexyl]pyrimidin-2-amine]
[1]; [5]
  pIC50: 6.00 to 7.00
DNA-PK; Table 1
  pIC50: > 9.30
[2]; [7]
  pEC50: 5.00 to 6.00
[2]; [8]
  pEC50: 5.00 to 6.00

## O=S1(=O)CCCN1c1cnc2cc(N3CCOCC3)nc(O[C@H]3CC[C@@H](Nc4ncccn4)CC3)c2c1 [Compound 195, 2-(7-morpholino-5-(((1s,4s)-4-(pyrimidin-2-ylamino)cyclohexyl)oxy)-1,6-naphthyridin-3-yl)isothiazolidine 1,1-dioxide]
[1]; [5]
  pIC50: 5.00 to 6.00
DNA-PK; Table 1
  pIC50: 6.82 to 8.00
[2]; [7]
  pEC50: 4.00 to 5.00
[2]; [8]
  pEC50: 4.00 to 5.00

## NC(=O)Nc1cnc2cc(N3CCOCC3)nc(O[C@H]3CC[C@@H](Nc4ncccn4)CC3)c2c1 [Compound 196, 1-(7-morpholino-5-(((1s,4s)-4-(pyrimidin-2-ylamino)cyclohexyl)oxy)-1,6-naphthyridin-3-yl)urea]
[1]; [5]
  pIC50: 6.00 to 7.00
DNA-PK; Table 1
  pIC50: 8.00 to 9.00
[2]; [7]
  pEC50: 5.00 to 6.00
[2]; [8]
  pEC50: 5.00 to 6.00

## c1ccc(CSc2cnc3cc(N4CCOCC4)nc(O[C@H]4CC[C@@H](Nc5ncccn5)CC4)c3c2)cc1 [Compound 200c, N-((1s,4s)-4-((3-(benzylthio)-7-morpholino-1,6-naphthyridin-5-yl)oxy)cyclohexyl)pyrimidin-2-amine]
[1]; [5]
  pIC50: 4.52 to 5.00
DNA-PK; Table 1
  pIC50: 6.82 to 8.00
[2]; [7]
  pEC50: 4.00 to 5.00
[2]; [8]
  pEC50: 4.00 to 5.00

## CSc1cnc2cc(N3CCOCC3)nc(O[C@H]3CC[C@@H](Nc4ncccn4)CC3)c2c1 [Compound 200d, N-((1s,4s)-4-((3-(methylthio)-7-morpholino-1,6-naphthyridin-5-yl)oxy)cyclohexyl)pyrimidin-2-amine]
[1]; [5]
  pIC50: 6.00 to 7.00
DNA-PK; Table 1
  pIC50: 8.00 to 9.00
[2]; [7]
  pEC50: 5.00 to 6.00
[2]; [8]
  pEC50: 5.00 to 6.00

## Cn1c(COc2cnc3cc(N4CCOCC4)nc(O[C@H]4CC[C@@H](NC(=O)c5ncccn5)CC4)c3c2)cnc1[N+](=O)[O-] [LFA116, N-[4-[[3-[(3-Methyl-2-nitro-imidazol-4-yl)methoxy]-7-morpholino-1,6-naphthyridin-5-yl]oxy]cyclohexyl]pyrimidine-2-carboxamide]
FaDu cell line
  Fraction of prodrug converted to active form, Hypoxic 0.2% O2: A (A is 0.15 to 1)
  Fraction of prodrug converted to active form, Oxic 5% O2: C (C is 0.02 to 0.05)
[1]; Table 2
  pIC50: 4.52 to 5.00
[4]; [9]
  pEC50: 6.30 to 8.00
[4]; [10]
  pEC50: 5.00 to 6.00
[4]; [11]
  pEC50: 5.00 to 6.00
DNA-PK; Table 2
  pIC50: 6.82 to 8.00

## Cn1c(COc2cnc3cc(N4CCOCC4)nc(O[C@H]4CC[C@@H](Nc5ncccn5)CC4)c3c2)cnc1[N+](=O)[O-] [LFA118, N-[4-[[3-[(3-Methyl-2-nitro-imidazol-4-yl)methoxy]-7-morpholino-1,6-naphthyridin-5-yl]oxy]cyclohexyl]pyrimidin-2-amine]
FaDu cell line
  Fraction of prodrug converted to active form, Hypoxic 0.2% O2: A (A is 0.15 to 1)
  Fraction of prodrug converted to active form, Oxic 5% O2: C (C is 0.02 to 0.05)
[1]; Table 2
  pIC50: 4.52 to 5.00
[4]; [9]
  pEC50: 6.30 to 8.00
[4]; [10]
  pEC50: 6.00 to 6.30
[4]; [11]
  pEC50: 5.00 to 6.00
DNA-PK; Table 2
  pIC50: 6.82 to 8.00
